{
  "source": "the OPERA property sets (Mansouri et al. 2018)",
  "data": [
    {"settings": "not given", "units": {"boiling point": "°C", "melting point": "°C"}, "values": [
      {"smiles": "CNCc1ccco1", "boiling point": 149},
      {"smiles": "CCC1CCCCC1", "boiling point": 132, "log10 biodegradation half-life (days)": 0.301, "log10 vapour pressure (mmHg)": 1.11, "melting point": -111, "ready biodegradability": "not readily biodegradable"},
      {"smiles": "CNc1ccc(NC)c2c1C(=O)c1ccccc1C2=O", "log10 vapour pressure (mmHg)": -10.7, "melting point": 220},
      {"smiles": "C[C@@H](S)C(=O)O", "melting point": 12},
      {"smiles": "CCOC(=O)C(Cl)Cl", "boiling point": 155, "log10 vapour pressure (mmHg)": 0.456},
      {"smiles": "CCOC(=O)C(=O)Nc1ccccc1", "boiling point": 280, "melting point": 65.5},
      {"smiles": "CC(=O)Nc1ccc2c(c1)Cc1ccccc1-2", "boiling point": 303, "log10 Koc (L/kg)": 3.14, "melting point": 193},
      {"smiles": "O=C(O)CCN1C(=O)C=CC1=O", "melting point": 104},
      {"smiles": "Cc1cccc2cccnc12", "boiling point": 248, "log10 vapour pressure (mmHg)": -1.6, "melting point": -80},
      {"smiles": "CCNCCN", "boiling point": 129},
      {"smiles": "Cc1cc(Cl)cc(Cl)c1Cl", "boiling point": 230, "melting point": 45.5},
      {"smiles": "COc1ccc(C)cc1C", "boiling point": 192},
      {"smiles": "CNC(=O)O/N=C1\\[C@@H](Cl)[C@@H]2C[C@H](C#N)[C@H]1C2", "melting point": 144},
      {"smiles": "CC(Cl)[N+](=O)[O-]", "note": "(configuration not stated)", "boiling point": 124},
      {"smiles": "CC(C)(S)C(=O)O", "melting point": 47},
      {"smiles": "Cc1c(COC(=O)[C@@H]2[C@H](/C=C(\\Cl)C(F)(F)F)C2(C)C)cccc1-c1ccccc1", "note": "(racemic)", "log10 Koc (L/kg)": 5.35, "log10 vapour pressure (mmHg)": -6.74, "melting point": 69},
      {"smiles": "CN(C)CCC=C1c2ccccc2CCc2ccccc21", "melting point": 196},
      {"smiles": "O=C1C(F)=C(F)C(=O)C(F)=C1F", "melting point": 184},
      {"smiles": "NC(=O)CI", "melting point": 94.5, "ready biodegradability": "not readily biodegradable"},
      {"smiles": "CC(=O)NCC1(c2ccccc2)CCN(CCCC(=O)c2ccc(F)cc2)CC1", "melting point": 98.5},
      {"smiles": "Clc1ccc(SSc2ccc(Cl)cc2)cc1", "melting point": 68},
      {"smiles": "CCCCCCCCC(=O)Cl", "boiling point": 215, "melting point": -60.5},
      {"smiles": "COC(=O)[C@H]1[C@H]2C[C@@H]3c4[nH]c5ccccc5c4CCN3C[C@H]2C[C@@H](OC(=O)c2cc(OC)c(OC)c(OC)c2)[C@@H]1OC", "melting point": 230},
      {"smiles": "C=CC=CCC", "boiling point": 73.5, "log10 vapour pressure (mmHg)": 2.11},
      {"smiles": "CC1CCCCC1=O", "note": "(configuration not stated)", "boiling point": 162, "log10 vapour pressure (mmHg)": 0.352},
      {"smiles": "Cc1cc(Cl)ccc1OCCCC(=O)O", "log10 Koc (L/kg)": 2.73, "log10 vapour pressure (mmHg)": -6.36, "melting point": 100},
      {"smiles": "CCOC(=O)c1ccc2ccccc2c1", "boiling point": 308, "melting point": 32},
      {"smiles": "Cc1ccc(N)nc1", "boiling point": 227, "melting point": 76.5},
      {"smiles": "COC(=O)CC[N+](=O)[O-]", "ready biodegradability": "readily biodegradable"},
      {"smiles": "Cc1cccc(OC(N)=O)c1", "log10 Koc (L/kg)": 1.48},
      {"smiles": "C=CCCCCCCCC", "boiling point": 170, "log10 vapour pressure (mmHg)": 0.223, "melting point": -66.3},
      {"smiles": "CC(C)CC(C)Cl", "note": "(configuration not stated)", "boiling point": 113},
      {"smiles": "OCC(O)CN1CCN(c2ccccc2)CC1", "note": "(configuration not stated)", "melting point": 105},
      {"smiles": "COc1ccc([C@@H]2CC(=O)c3c(O)cc(O)cc3O2)cc1O", "melting point": 228},
      {"smiles": "O=C1c2ccccc2N(C(=O)CN2CCOCC2)CN1c1ccccc1", "melting point": 136},
      {"smiles": "COc1cc2ccc(=O)oc2cc1O", "melting point": 204},
      {"smiles": "C=CCc1cc(Cl)ccc1O", "melting point": 48},
      {"smiles": "FSC(F)(F)F", "boiling point": 148},
      {"smiles": "CCCCCCCCCCCCCC(=O)Cl", "melting point": -1},
      {"smiles": "C=C[C@@](C)(O)CC/C=C(/C)CCC=C(C)C", "boiling point": 276},
      {"smiles": "Oc1ccc2ccccc2c1-c1c(O)ccc2ccccc12", "melting point": 216},
      {"smiles": "Cc1c(Br)cc(Br)c(O)c1Br", "melting point": 84},
      {"smiles": "O=C1c2ccc(O)cc2C(=O)c2cc(O)ccc21", "melting point": 354},
      {"smiles": "Cc1csc(S)n1", "melting point": 89.3},
      {"smiles": "C=CCOC(=O)C(=O)OCC=C", "boiling point": 217},
      {"smiles": "CC(C)(C)c1cccc([N+](=O)[O-])c1", "boiling point": 254, "melting point": 2},
      {"smiles": "CC(=O)CF", "boiling point": 77, "log10 vapour pressure (mmHg)": 1.8},
      {"smiles": "O=C(O)COc1nc(Cl)c(Cl)cc1Cl", "log10 Koc (L/kg)": 1.67, "log10 vapour pressure (mmHg)": -5.9, "melting point": 149},
      {"smiles": "CCC(C#N)c1ccccc1", "note": "(configuration not stated)", "boiling point": 241},
      {"smiles": "C#CC(C)=O", "boiling point": 84},
      {"smiles": "C=CCCCCCCCCCCCCCC", "boiling point": 285, "log10 vapour pressure (mmHg)": -2.58, "melting point": 4.1, "ready biodegradability": "readily biodegradable"},
      {"smiles": "Cc1ccc(C(C)C)c(O)c1", "boiling point": 232, "log10 vapour pressure (mmHg)": -2.66, "melting point": 51.5, "ready biodegradability": "not readily biodegradable"},
      {"smiles": "BrCCOc1ccccc1", "melting point": 39},
      {"smiles": "CCCCCCCCCCCN", "boiling point": 242, "melting point": 17},
      {"smiles": "O=C(O)CSc1ncccn1", "ready biodegradability": "readily biodegradable"},
      {"smiles": "Fc1ccc(N=C=S)cc1", "boiling point": 228, "melting point": 27},
      {"smiles": "[O-][N+](=Nc1ccccc1)c1ccccc1", "log10 Koc (L/kg)": 3.5, "melting point": 36},
      {"smiles": "OB(O)c1ccc(Cl)cc1", "melting point": 286},
      {"smiles": "c1ccc(-c2cccnc2)nc1", "boiling point": 296},
      {"smiles": "BrC1CCCC1", "boiling point": 138},
      {"smiles": "CC(C)=CCC/C(C)=C/C=C/C(C)=C/C=C/C(C)=C/C=C/C=C(C)/C=C/C=C(C)/C=C/C=C(\\C)CCC=C(C)C", "melting point": 175},
      {"smiles": "COc1cccc(C(N)=O)c1", "melting point": 134},
      {"smiles": "NC(=O)OCC(COC(N)=O)c1ccccc1", "melting point": 152}
    ]},
    {"settings": "fish", "values": [
      {"smiles": "CC(C)Oc1cccc(NC(=O)c2ccccc2C(F)(F)F)c1", "log10 BCF": 1.29, "log10 biotransformation half-life (days)": -0.61},
      {"smiles": "Clc1ccc(Oc2ccc(Cl)c(Cl)c2)cc1Cl", "log10 BCF": 4.51},
      {"smiles": "Nc1cc(Cl)ccc1Cl", "log10 BCF": 1.18, "log10 biotransformation half-life (days)": -1.13},
      {"smiles": "CCCCCC[Si](O)(CCCCCC)CCCCCC", "log10 BCF": 2.7, "log10 biotransformation half-life (days)": 0.04},
      {"smiles": "NS(=O)(=O)c1ccccc1", "log10 BCF": 0.68, "log10 biotransformation half-life (days)": -0.71},
      {"smiles": "O=C(O)c1ccccc1Cl", "log10 BCF": 1},
      {"smiles": "C=CCCCCCCCC", "log10 biotransformation half-life (days)": 0.65},
      {"smiles": "C=CCCCCCCCCCCCCCC", "log10 biotransformation half-life (days)": 1.67}
    ]}
  ]
}
